Measurements published in paper doi:10.1101/2025.04.10.648262, “Time-resolved phenotyping at subcellular resolution reveals shared principles and key trade-offs across antimicrobial peptide activities” (bioRxiv, 2026).
Where two headings read alike, the source gives them in different places. Bridge positions count the residues as written; N and C are the ends. Square brackets hold non-standard residues; d marks the D form. Peptide text beside a SMILES is read from it. Nspe = C[C@H](NCC(=O)O)c1ccccc1; Nlys = NCCCCNCC(=O)O

Tests used:
E. coli (MG1655) = assay type: cell-based, Escherichia coli
Method: For all experiments and E. coli strains, cells were grown in a medium (M9gluCAAT) with M9 salts (33.7 mM Na2HPO4, 22mM KH2PO4, 8.55 mM NaCl, 9.35 mM NH4Cl), 0.2% (w/v) glucose, 0.4% (w/v) casamino acids, 1 mM MgSO4, 0.3 mM CaCl2, 1 μg/mL thiamine, and trace elements (13.4 mM ethylene-diamine-tetra-acetic-acid (EDTA), 3.1 mM FeCl3-6H2O, 0.62 mM ZnCl2, 76 μM CuCl2-2H2O, 42 μM CoCl2-2H2O, 162 μM H3BO3, 8.1 μM MnCl2-4H2O). Prior to every experiment, cells were first inoculated into M9gluCAAT and grown to stationary phase at 37°C. For all assays except the biofilm experiments, the culture was diluted to 1/10,000 or more in fresh medium and grown at 37°C until it reached an optical density at 600 nm (OD) of 0.2–0.4. For the biofilm experiments, cells were grown in M9gluCAAT supplemented with 100 μg/mL ampicillin to maintain the GFP-expressing plasmid. The overnight stationary-phase cultures were then diluted into the same medium to an OD of 0.015. See below for details on biofilm growth.
Except for the biofilm experiments, the strains used in this study were derived from MG1655 (ATCC 47076), which was used to estimate the minimum inhibitory concentration (MIC) for all the studied peptides (or peptoids) using a microplate reader (Figure 1A). To detect the timing of outer and inner membrane permeabilization to proteins, strain CJW7845 was constructed to carry two freely diffusing fluorescent proteins: mScarlet-I in the periplasm and mTagBFP2 in the cytoplasm. Construction of CJW7845 was done by transforming pBAD-mTagBFP2 plasmid (Addgene #34632, a gift from Vladislav Verkhusha; ([Subach et al., 2011])) into an E. coli strain expressing a periplasmic mScarlet-I reporter ([Cañas-Duarte 2021]), as previously described ([Chung et al., 1989]). Transformants were restreaked on fresh selection plates and confirmed via microscopy.
To determine the minimal inhibitory concentration (MIC) of the selected AMPs against either MG1655 or ATCC 25922 E. coli strains, exponentially growing cells were diluted in fresh medium to an OD = 10^−6 (~500 cells/mL) and mixed 50:50 with titrated AMP concentrations (which were chosen to be over a range that included the MIC) in a 96-well plate (flat bottom with low evaporation lid, 3595, Corning, Arizona, USA). A final OD of 5 × 10^−7 corresponds to ~250 cells/mL. OD curves were sampled every 5 min for a total of 48 h using a microplate reader (BioTek Synergy 2, Agilent Technologies Inc., California, USA). Raw data were exported as a text file and analysed using a custom-written Python script (microplate_reader_analysis.py). To measure maximum growth rates, the log(OD) was fitted using a linear regression over a 12-point moving window (60 min), which provides the instantaneous growth rate (log(OD)/h), from which the global maximum was computed. The MIC was defined as the minimum AMP concentration for which the maximum growth rate was < 0.2 log(OD)/h within the first 20 h of incubation. Each MIC experiment was performed independently at least three times (with at least two technical replicates each), and the mode across all replicates was taken as the final MIC; in the rare cases of a tie, an additional replicate was performed, which was sufficient to resolve it.

[1] = tested on: CJW7753 cells in wide trenches; test: Wide-trench microfluidics, growth inhibition of dense populations; assay type: cell-based, Escherichia coli; details: 2X MIC in feeding channel, 37°C, M9gluCAAT with 0.08% Pluronic
Description: The design of the wide-trench microfluidics was adapted from the one reported by ([Lambert & Kussell, 2014]). As reported before ([Lin & Jacobs-Wagner, 2022]), the master mold was manufactured in the clean room of the School of Engineering and Applied Science at Yale University. UV photolithography (EVG 620 Mask Aligner) was applied on Si wafers with SU-8 photoresist to generate two layers of positive patterns. The lower layer contained the bacterial culture chambers (wide trenches) while the upper layer contained the large trench for the flowing culture medium. The large feeding region features a ~200 μm width and ~30 μm height. The wide trenches have a width of 7 μm, a depth of ~34–38 μm, and a height of 1.29 μm.
A solution of 9:1 polydimethylsiloxane (PDMS) and curing agent was mixed, degassed to remove air bubbles, poured onto the silicon wafer, and cured at 64.5°C for > 3 h. Note that the 9:1 PDMS:curing agent ratio was used instead of the standard 10:1 to reduce the hydrophobicity of the PDMS and mitigate hydrophobic interactions with AMPs. Once hardened, PDMS chips were cut out from the wafer, and a 1.2 mm biopsy punch was used to create inlet and outlet holes. The current chip design features two independent channels per chip. To allow for a higher temperature during PDMS-glass bonding, the glass bottom part of the dish was used during the following steps (without the plastic support glued to it). […]
To analyse wide-trench time-lapse images, drift correction was first performed using OmniSegger, followed by a custom Python script (drift_correction_wide_trenches.py) to correct for the slow residual drift that remained after the first correction step. The resulting drift-corrected timelapse data were analysed with the OmniSegger pipeline using the ribosome-fluorescence wide-trench Omnipose model described above, allowing cell segmentation and cell linking to be performed in the same general manner as for the PDMS-microwell experiments. […]

Compound | MIC (mode MIC) (E. coli (MG1655); E. coli MG1655, M9gluCAAT, 37°C, 20 h, inoculum ~250 cells/mL, max growth rate < 0.2 log(OD)/h, mode across three biological replicates with two technical replicates each) [µM] | Growth inhibition of dense cell population in wide trenches [1] | MIC (mode MIC) (E. coli (MG1655); MG1655, 20 h) [µM]
C[C@@H](c1ccccc1)N(CC(N)=O)C(=O)CN(C(=O)CN(CCCCN)C(=O)CN(C(=O)CN(C(=O)CN(CCCCN)C(=O)CN(C(=O)CN(C(=O)CN(CCCCN)C(=O)CN(C(=O)CN(C(=O)CNCCCCN)[C@@H](C)c1ccccc1)[C@@H](C)c1ccccc1)[C@@H](C)c1ccccc1)[C@@H](C)c1ccccc1)[C@@H](C)c1ccccc1)[C@@H](C)c1ccccc1)[C@@H](C)c1ccccc1 [TM1] (H-[Nlys][Nspe][Nspe][Nlys][Nspe][Nspe][Nlys][Nspe][Nspe][Nlys][Nspe][Nspe]-NH2) | 2.5 | localized growth inhibition | 
CC[C@H](C)[C@@H]1NC(=O)CNC(=O)[C@H](CCCNC(=N)N)NC(=O)[C@H](Cc2ccc(O)cc2)NC(=O)[C@@H]2CSSC[C@H](NC1=O)C(=O)N[C@@H](Cc1ccc(O)cc1)C(=O)N[C@@H](CCCNC(=N)N)C(=O)N[C@@H](CCCNC(=N)N)C(=O)N[C@H](C(=O)N[C@@H](CCCNC(=N)N)C(N)=O)CSSC[C@H](NC(=O)[C@H](Cc1c[nH]c3ccccc13)NC(=O)[C@@H](N)CCCCN)C(=O)N[C@@H](Cc1ccccc1)C(=O)N[C@@H](CCCNC(=N)N)C(=O)N[C@@H](C(C)C)C(=O)N2 [Tac1, tachyplesin-1] (H-KWCFRVCYRGICYRRCR-NH2; disulfide 3-16, 7-12 (inferred); N-terminus assumed) |  | primarily inhibited the growth of cells near the top of the trenches | 0.6
CC[C@@H](C)[C@@H](NC(=O)[C@@H](C)NC(=O)[C@@H](CCCNC(=N)N)NC(=O)[C@@H](Cc1c[nH]c2ccccc12)NC(=O)[C@@H](CCC(N)=O)NC(=O)[C@H](N)C(C)C)C(=O)N[C@H](CCCNC(=N)N)C(=O)N[C@@H](C(=O)N[C@H](CCCNC(=N)N)C(=O)N[C@@H](C(=O)N[C@@H](C(=O)N[C@H](CCCNC(=N)N)C(N)=O)[C@H](C)CC)C(C)C)C(C)C [DJK-5] (H-[dV][dQ][dW][dR][dA][dI][dR][dV][dR][dV][dI][dR]-NH2; N-terminus and C-terminus assumed) |  | able to inhibit cell growth throughout the entire wide trenches | 2.5
